Laboratory results as given in patent publication US20180317484A1 (priority 2017, published 2018).

Tested on: Aspergillus flavus
Assay: microbe, parasite or virus in culture
Type: cell-based

SMILES | effect on growth of the fungi, in words | inhibition at 50 µg/mL (Aspergillus flavus, 168 h, read-out: percentage of inhibition of growth of the fungi (Aspergillus flavus)) [%]
NC(=NO)c1ccc2nc(-c3ccco3)[nH]c2c1 [6-AFBD, 2-(2-Furyl) benzimidazole-6-carboxamidoxime] | does not inhibit the growth | –
O=C(O)c1ccc2nc(-c3ccco3)[nH]c2c1 [6-CAFBD, 2-(2-Furyl) benzimidazole-6-carboxylic acid] | does not inhibit the growth | –
O=[N+]([O-])c1ccc2nc(-c3ccco3)[nH]c2c1 [6-NFBD, 2-(2-Furyl)-6-nitrobenzimidazole] | does not inhibit the growth | –
c1coc(-c2nc3ccccc3[nH]2)c1 [FBD, 2-(2-Furyl)benzimidazole] | – | 100
